The numbers were not newly measured in patent publication US20060063833A1, “Ready-to-use oxaliplatin solutions” (priority 2004, published 2006), which cites them from elsewhere.

For series [1] the following is noted: at least at concentrations below 1 mg/ml.

On to `O=C1[O][Pt-2]2([NH2+]C3CCCC[C@H]3[NH2+]2)[O]C1=O` (stereo partly drawn) [Oxaliplatin, cis-oxalato-(trans-1,2-cyclohexanediamine)-platinum(II)], for which the solubility in ethanol entry (ethanol) is “practically insoluble”. Besides, the solubility in methanol result (methanol) is recorded as “scarcely soluble”. The solubility in water result (water) was “soluble”. Also, the stability in water entry in series [1] is recorded as “not very stable”.
